{"source": "patent US20240327421A1", "about": "(Marquette University, priority 2017, published 2024)", "key": {"[1]": {"target": "T1, CYP3A4 (Homo sapiens, UniProt P08684)", "T1 construct": "purchased Promega Corporation (Madison, WI)", "T1 sequence (P08684 whole entry)": "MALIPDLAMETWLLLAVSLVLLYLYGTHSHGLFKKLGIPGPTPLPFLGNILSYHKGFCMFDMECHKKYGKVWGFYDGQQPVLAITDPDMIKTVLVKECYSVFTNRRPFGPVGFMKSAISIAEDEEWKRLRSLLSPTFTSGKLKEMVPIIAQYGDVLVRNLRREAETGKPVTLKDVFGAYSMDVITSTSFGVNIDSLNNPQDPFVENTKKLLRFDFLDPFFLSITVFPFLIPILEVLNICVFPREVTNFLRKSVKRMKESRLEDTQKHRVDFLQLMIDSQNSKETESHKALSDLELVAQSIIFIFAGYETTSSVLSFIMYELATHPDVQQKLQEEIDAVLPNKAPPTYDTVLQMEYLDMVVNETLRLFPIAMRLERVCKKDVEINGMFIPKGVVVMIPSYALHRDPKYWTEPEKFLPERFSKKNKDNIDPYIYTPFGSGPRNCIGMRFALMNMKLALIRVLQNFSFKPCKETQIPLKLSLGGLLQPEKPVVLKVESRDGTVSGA", "assay": "P450-Glo CYP450 inhibition, CYP3A4", "assay_type": "in vitro ADME", "details": "highest concentration 62.6 μM", "method": "(§1) In Vitro Druggability Assays-CYP450 Binding, hERG & Nephelometry. The P450-Glo™ Screening System from Promega Corporation (Madison, WI) was used to measure CYP450 (cytochrome P450) inhibition, as described in the kit instructions. Assays were run in 96-well white plates (Corning® 3912), and luminescence was measured on a SpectraMax M5 instrument (FIG. 6). The luminescence signal is proportional to the amount of luciferin product formed by the CYP reaction. Compounds were prepared in DMSO, then an eight-step 1:2 dilution series was made in DMSO. […] After adding the relevant Cytochrome P450 enzyme, the plate was incubated at 37° C. for 10 minutes to allow components to come to temperature. Next, the NADPH regeneration system was added to activate the reaction on a luminogenic P450-GloTM substrate, and incubated at 37° C. for 10-30 min, according to kit instructions for each CYP enzyme. The enzyme reaction was stopped by the addition of Luciferin Detection Reagent and luminescence of the plate was read in a Spectramax M5 (Molecular Devices) after a 20 min incubation at room temperature. Data were normalized to positive controls (α-naphthoflavone for CYP1A2, sulfaphenazole for CYP2C9, quinidine for CYP2D6, and ketoconazole for CYP3A4). Data analysis was with Prism software, as described above."}, "[2]": {"target": "T2, human ER Alpha ligand-binding domain (LBD) (Homo sapiens, UniProt P03372)", "T2 construct": "purchased Thermo Fisher Scientific", "T2 sequence (P03372 311-547 limits assumed)": "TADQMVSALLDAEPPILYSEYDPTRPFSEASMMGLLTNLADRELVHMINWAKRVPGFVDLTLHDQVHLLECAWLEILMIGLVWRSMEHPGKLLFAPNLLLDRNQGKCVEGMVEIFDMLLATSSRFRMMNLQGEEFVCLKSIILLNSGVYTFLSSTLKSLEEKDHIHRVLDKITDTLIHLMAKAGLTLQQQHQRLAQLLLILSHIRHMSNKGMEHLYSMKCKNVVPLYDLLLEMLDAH", "assay": "TR-FRET competitive binding assay, ERα LBD", "details": "displacement of fluorescent tracer from ERα LBD", "source_text": "TR-FRET Assay. LanthaScreen® TR-FRET ER Alpha and Beta Competitive Binding Assay kits from Thermo Fisher Scientific were used to perform the TR-FRET assays. These included a terbium-labeled anti-GST antibody, a fluorescent small molecule ER Alpha or Beta ligand as a “tracer”, and a human ER Alpha or Beta ligand -binding domain (LBD) that is tagged with glutathione-S-transferase (GST) in a homogenous mix- and -read assay format.\nThe TR-FRET assay employs a Tb-anti-GST antibody that binds to a GST tag, and a fluorescently labeled estrogen (tracer) binds in the active site pocket. The TR-FRET signal obtained decreases when competitor compounds displace the fluorescently labeled tracer. Assays were performed according to kit instructions. Briefly, 1:5 dilution series of compounds were made with DMSO, then diluted in assay buffer such that the highest concentration tested in the assay was 50 μM for ERβ and 50 μM for ERα and DMSO was 1%. […] TR-FRET signal was read on a SpectraMax M5 (Molecular Devices) set-up according to Thermo Fisher Scientific machine settings (excitation of 332 nm, emissions 518 nm and 488 nm with a 420 nm cutoff, 50 μs integration delay, 400 μs integration time, and 100 flashes per read). The TR-FRET ratio was calculated using the SoftmaxPro software by dividing the emission at 518 nm (fluorescein) by the emission at 488 nm (Terbium). […]"}, "[3]": {"system": "ovariectomized mice", "assay": "Object recognition memory consolidation test"}, "[4]": {"target": "T3, CYP2C9 (Homo sapiens, UniProt P11712)", "T3 construct": "purchased Promega Corporation (Madison, WI)", "T3 sequence (P11712 whole entry)": "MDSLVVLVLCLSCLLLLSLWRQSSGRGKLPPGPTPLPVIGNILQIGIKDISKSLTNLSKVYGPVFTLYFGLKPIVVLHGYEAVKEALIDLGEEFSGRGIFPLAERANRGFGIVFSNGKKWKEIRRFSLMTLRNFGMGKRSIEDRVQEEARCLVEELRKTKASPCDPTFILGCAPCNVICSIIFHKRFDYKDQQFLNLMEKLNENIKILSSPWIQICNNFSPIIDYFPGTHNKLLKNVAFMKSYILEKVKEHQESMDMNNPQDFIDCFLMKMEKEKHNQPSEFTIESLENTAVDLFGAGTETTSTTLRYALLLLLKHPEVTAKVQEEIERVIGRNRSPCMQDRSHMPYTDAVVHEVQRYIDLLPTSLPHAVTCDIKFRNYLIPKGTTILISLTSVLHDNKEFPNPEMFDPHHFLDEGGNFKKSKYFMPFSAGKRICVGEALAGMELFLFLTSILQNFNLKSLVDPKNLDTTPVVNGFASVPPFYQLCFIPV", "assay": "P450-Glo CYP450 inhibition, CYP2C9", "assay_type": "in vitro ADME", "details": "highest concentration 62.6 μM", "method": "as §1"}, "[5]": {"system": "MCF-7 cells", "assay": "MTT assay for proliferation of MCF-7 cells", "assay_type": "cell-based", "details": "24 h treatment, 0.001-10 μM", "method": "FIGS. 15A-15C. MTT assay for proliferation of MCF-7 cells. Cells were seeded into 96-well plates and incubated for 24 hr before treatment was applied. […] Absorbance values were converted to cell counts using a standard growth curve.\nMTT Assays. Human breast cancer cells (MCF-7) were provided by Dr. Manish Patankar (Department of Obstetrics and Gynecology, University of Wisconsin-Madison). Cells were cultured in Eagle's Minimum Essential Media (EMEM) supplemented with 10% fetal bovine serum and 0.01 mg/mL human recombinant insulin in 5% CO2 at 37° C. A seeding density of 7,000 cells per well was chosen and applied to a 96 well plate. […] Treated cells were incubated for 24 hours after which an MTT (3-(4,5-Dimethylthiazol-2-yl)-2,5-Diphenyltetrazolium Bromide) assay was performed by adding 20% MTT in EMEM solution to cach well and incubating for 4 hours. Formazan crystal metabolites were dissolved using 100% DMSO and absorbance was read at OD 570 nm as well as a reference of 650 nm using a VMax kinetic microplate reader (Molecular Devices, CA) running Softmax Pro version 6.1. Absorbances were converted to cell number using a standard growth curve."}, "[6]": {"target": "T4, Glucocorticoid Receptor (GR) (Homo sapiens, UniProt P04150)", "T4 sequence (P04150 524-758 limits assumed)": "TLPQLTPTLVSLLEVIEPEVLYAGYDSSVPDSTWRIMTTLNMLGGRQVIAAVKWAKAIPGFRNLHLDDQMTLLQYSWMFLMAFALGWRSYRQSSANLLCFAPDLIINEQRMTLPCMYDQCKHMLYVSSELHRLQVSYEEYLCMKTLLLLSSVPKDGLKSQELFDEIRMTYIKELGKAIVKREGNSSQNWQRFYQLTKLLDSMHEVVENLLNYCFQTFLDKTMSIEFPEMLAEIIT", "assay": "GeneBLAzer nuclear hormone receptor specificity assay, GR", "assay_type": "cell-based", "details": "0.25 to 25 μM; listed as ISP358-2"}}, "note": "“Also recorded” adds a separate entry of the source."}
{"compound": "OC[C@H]1CC[C@H](c2ccc(O)cc2)CC1", "note": "[Compound 16]", "values": [{"measurement": "CYP3A4 inhibition", "setting": "[1]", "value": "no significant inhibition"}, {"measurement": "IC50", "setting": "[1]", "value": "89 ± 18", "unit": "µM"}, {"measurement": "IC50", "setting": "[2]", "value": "289 ± 92", "unit": "nM"}, {"measurement": "object recognition: time with novel object / memory consolidation", "setting": "[3]; IP injection, 0.5 mg/kg, listed as ISP358-2, 0.5 mg/kg", "value": "exhibited a significant preference for the novel object relative to chance; also recorded: most effectively enhanced consolidation; also recorded: enhanced memory consolidation"}, {"measurement": "object recognition: time with novel object / memory consolidation", "setting": "[3]; IP injection, 5 mg/kg", "value": "somewhat of a trend for the 5 mg/kg ISP358-2 to prefer the novel object"}, {"measurement": "object recognition: time with novel object / memory consolidation", "setting": "[3]; dorsal hippocampal infusion, 10 pg/hemisphere, tested 48 h after training, chance 15 s", "value": "Neither the vehicle nor 10 pg ISP358-2 groups showed a preference for the novel object"}, {"measurement": "object recognition: time with novel object / memory consolidation", "setting": "[3]; dorsal hippocampal infusion, 100 pg/hemisphere, tested 48 h after training, listed as ISP358-2", "value": "spent significantly more time than chance with the novel object; also recorded: enhanced memory consolidation; also recorded: significantly increased time was spent"}, {"measurement": "object recognition: time with novel object / memory consolidation", "setting": "[3]; dorsal hippocampal infusion, 1 ng/hemisphere, tested 48 h after training, listed as ISP358-2", "value": "spent significantly more time than chance with the novel object; also recorded: enhanced memory consolidation; also recorded: significantly increased time was spent"}, {"measurement": "object recognition: time with novel object / memory consolidation", "setting": "[3]; oral gavage, 0.5 mg/kg, listed as ISP358-2, 0.5 mg/kg", "value": "spent significantly more time with the novel object relative to chance; also recorded: enhanced memory consolidation"}, {"measurement": "object recognition: time with novel object / memory consolidation", "setting": "[3]; oral gavage, 5 mg/kg, listed as ISP358-2, 5 mg/kg", "value": "spent significantly more time with the novel object relative to chance; also recorded: most effective; also recorded: enhanced memory consolidation"}, {"measurement": "CYP2C9 inhibition", "setting": "[4]", "value": "no significant inhibition"}, {"measurement": "IC50", "setting": "[4]", "value": "34 ± 4.7", "unit": "µM"}, {"measurement": "proliferation of MCF-7 cells vs untreated control", "setting": "[5]", "value": "No significant changes in the growth of MCF-7 cells"}, {"measurement": "proliferation of MCF-7 cells vs untreated control", "setting": "[5]; listed as ISP358-2", "value": "neither ISP358-2 nor DPN showed any significant proliferation"}, {"measurement": "agonist activity, GR", "setting": "[6]", "value": "not an agonist; also recorded: no significant off-target activity"}]}
